The numbers were not newly measured in patent US9789071B2 (G2B Pharma Inc., priority 2012, dated 2017), which cites them from elsewhere.

The Tmax is the time from dosing to the highest level.

SMILES strings stand for the structures.

The conditions of data set [1]: IM injection.
For data set [2] the following is noted: dogs.
For data set [3] the following is noted: dogs. The source holds these as a separate data set.
For data set [4] the following is noted: normal human subjects, IM epinephrine injection.
For data set [5] the following is noted: oral route.
The conditions of data set [6]: sublingual doses 5 to 40 mg, as the bitartrate salt.
Setting [7] is: nasal mucosa, needleless high-pressure injection.

For `CNC[C@H](O)c1ccc(O)c(O)c1` [epinephrine], the “onset of action (Tmax)” value in data set [1] is 3 to 8 min. Further, the “time peak systolic pressure was maintained” value in data set [2] is recorded as “about 180 seconds”. Besides, in data set [2] (at 60 seconds), the peak systolic pressure is given as 200 % of baseline. Also, in data set [2] (setting [7]), the “peak epinephrine levels in the blood” value is around 20 ng/mL and the “time of peak (Tmax) epinephrine levels in the blood” value is 0.25 min. In addition, the “greatest epinephrine plasma concentrations” value in data set [3] (CPR, 7.5 mg/kg/nostril epinephrine after 0.25 mg/kg/nostril intranasal phentolamine, 1% taurodeoxycholic acid) is reported as ~1,400 ng/mL. Also, the absolute bioavailability entry in data set [3] (intranasal, with 1% taurodeoxycholic acid) was “quite low”. Moreover, the Tmax in data set [4] was 69 ± 19 min. In addition, in data set [5], the bioavailability result is reported as “negligible”. The plasma concentrations entry in data set [6] was “equivalent to IM injection”.
